# What was measured:
# [1] = target: GSK-3 α/β; assay: Kinase assay GSK-3α/β; format: biochemical, pig; conditions: 15 μM ATP, 30° C., buffer A, GS-1 substrate
# Procedure: (§1) After incubating at 30° C. for 30 min, 25 μl aliquots of supernatant were deposited on 2.5×3 cm pieces of Whatman P8 phosphocellulose papers and then, 20 sec. later, the filters were washed 5 times in a solution of 10 ml of phosphoric acid/liter. The filters are subsequently counted in the presence of 1 ml of ACS (Amersham).
# (§2) The mean inhibitory concentration IC50 values were calculated from the dose/response curves and are listed in μM in the following table I.
# [2] = tested on: B2 lymphocytes originating from patients; assay: Induction of cell death of B chronic lymphoid leukemia cells (B2 lymphocytes) from patients; format: cell-based, human; conditions: B2 lymphocytes from CLL patients, MTS reduction / LDH release
# Procedure: The B2 lymphocytes are lymphocytes involved in […] chronic lymphoid leukemia.
# Cell viability is determined by the reduction of 3-(4,5-dimethylthiazol-2-yl)-5-(3-carboxymethoxyphenyl)-2-(4-sulfophenyl)-2H-tetrazolium (MTS).
# Cell death is determined by the measurement of the level of the activity of the lactate dehydrogenase (LDH) released during lysis of the cells. The two processes are described in detail in “Ribas J. and Boix J. Cell differentiation, caspase inhibition, and macromolecular synthesis blockage, but not BCL-2 or BCL-XL proteins protect SH-SY5Y cells from apoptosis triggered by two CDK inhibitory drugs.
# In table 2, the values shown are the mean inhibitory concentration IC50 values, expressed in μM.
# [3] = Solubility in water; format: physicochemical
# [4] = target: T1, CDK9/cyclin T (Homo sapiens, UniProt P50750); assay: Kinase assay CDK9/cyclin T; format: biochemical; conditions: 15 μM ATP, 30° C., pRB fragment substrate
# T1 construct: host or cells: insect cells
# T1 sequence (P50750 whole entry, the tested form may be a part): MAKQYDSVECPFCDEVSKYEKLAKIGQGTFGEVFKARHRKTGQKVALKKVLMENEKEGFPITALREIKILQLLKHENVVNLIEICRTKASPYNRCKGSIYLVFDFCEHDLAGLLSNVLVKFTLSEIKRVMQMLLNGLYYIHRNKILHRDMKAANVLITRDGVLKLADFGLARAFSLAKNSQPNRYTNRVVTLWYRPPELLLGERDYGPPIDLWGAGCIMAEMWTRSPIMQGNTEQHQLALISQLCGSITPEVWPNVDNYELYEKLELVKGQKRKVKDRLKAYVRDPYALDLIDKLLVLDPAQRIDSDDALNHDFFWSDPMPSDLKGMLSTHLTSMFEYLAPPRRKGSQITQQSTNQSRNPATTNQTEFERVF
# T1 sequence (O60563 whole entry partner, the tested form may be a part): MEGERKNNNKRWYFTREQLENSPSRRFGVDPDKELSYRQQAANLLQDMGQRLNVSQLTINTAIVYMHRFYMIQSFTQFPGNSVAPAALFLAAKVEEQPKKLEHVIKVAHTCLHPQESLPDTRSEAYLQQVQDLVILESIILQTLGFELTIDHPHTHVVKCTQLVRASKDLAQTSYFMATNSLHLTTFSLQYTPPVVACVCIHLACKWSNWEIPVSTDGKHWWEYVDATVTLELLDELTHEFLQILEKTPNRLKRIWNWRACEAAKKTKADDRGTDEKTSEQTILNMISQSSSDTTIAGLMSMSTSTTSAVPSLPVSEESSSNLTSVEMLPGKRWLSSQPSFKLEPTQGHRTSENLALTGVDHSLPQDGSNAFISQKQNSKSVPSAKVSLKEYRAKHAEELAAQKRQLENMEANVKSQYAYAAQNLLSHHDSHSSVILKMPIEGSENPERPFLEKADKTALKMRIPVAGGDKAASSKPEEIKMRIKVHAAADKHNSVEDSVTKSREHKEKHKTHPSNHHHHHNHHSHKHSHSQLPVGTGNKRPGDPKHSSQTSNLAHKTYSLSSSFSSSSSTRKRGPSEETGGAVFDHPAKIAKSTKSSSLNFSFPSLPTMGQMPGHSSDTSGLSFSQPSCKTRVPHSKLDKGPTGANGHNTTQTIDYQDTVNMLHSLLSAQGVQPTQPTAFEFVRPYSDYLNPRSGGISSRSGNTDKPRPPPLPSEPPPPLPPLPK
# Procedure: as §1, with “Assaying is carried out with 1 mg histone H1/ml, in the presence of 15 μm [γ-^33P]ATP (3000 Ci/mmol; 10 mCi/ml) in a final volume of 30 μl. After” for “After”
# as §2
# [5] = target: T2, DYRK1A (Homo sapiens, UniProt Q13627); assay: Kinase assay DYRK1A; format: biochemical; conditions: 15 μM ATP, 30° C.
# T2 construct: host or cells: E. coli
# Procedure: as §1, with “Assaying is carried out with 1 mg histone H1/ml, in the presence of 15 μm [γ-^33P]ATP (3000 Ci/mmol; 10 mCi/ml) in a final volume of 30 μl. After” for “After”
# DYRK1A (human, recombinant, expressed in E. coli cells) is assayed like CDK1/cyclin B.
# as §2
# [6] = target: Erk2 (Homo sapiens, UniProt P28482); assay: Kinase assay Erk2; format: biochemical; conditions: 15 μM ATP, 30° C.
# Erk2, sequence (P28482 whole entry, species assumed): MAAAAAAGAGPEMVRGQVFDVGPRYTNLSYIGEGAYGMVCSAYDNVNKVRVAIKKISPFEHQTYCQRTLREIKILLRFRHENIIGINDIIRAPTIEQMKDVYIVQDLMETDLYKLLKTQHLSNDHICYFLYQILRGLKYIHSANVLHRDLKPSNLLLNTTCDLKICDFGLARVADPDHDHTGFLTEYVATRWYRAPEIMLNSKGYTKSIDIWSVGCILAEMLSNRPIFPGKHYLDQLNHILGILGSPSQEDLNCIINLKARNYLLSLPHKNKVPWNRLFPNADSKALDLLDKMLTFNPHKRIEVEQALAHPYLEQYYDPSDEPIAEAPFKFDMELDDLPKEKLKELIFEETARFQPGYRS
# Procedure: as §2
# [7] = target: CK1δ/e; assay: Kinase assay CK1; conditions: read-out: IC50 CK1; 15 μM ATP, 30° C., buffer A
# Procedure: Assaying is carried out with 1 mg histone H1/ml, in the presence of 15 μm [γ-^33P]ATP (3000 Ci/mmol; 10 mCi/ml) in a final volume of 30 μl. After incubating at 30° C. for 30 min, 25 μl aliquots of supernatant were deposited on 2.5×3 cm pieces of Whatman P8 phosphocellulose papers and then, 20 sec. later, the filters were washed 5 times in a solution of 10 ml of phosphoric acid/liter. The filters are subsequently counted in the presence of 1 ml of ACS (Amersham).
# [8] = tested on: B-CLL; conditions: B-CLL patients; cited from earlier work
molecule,measurement,setting,value
CC[C@@H](CO)Nc1nc(NCc2ccc(-c3ccccn3)cc2)c2ncn(C(C)C)c2n1 [Compound of formula Ib],IC50,[1],≥ 30000 nM
same,IC50,"[2]; Homo sapiens, Lymphocyte",90 nM
same,solubility,[3],3.3 µg/mL
same,IC50,[4],110 nM
same,IC50,[5],900 nM
same,IC50,[6],2100 nM
same,IC50,[7],610 nM
alemtuzumab: therapeutic antibody against an antigen expressed on leukocytes and leukemic B lymphocytes of CLL,hematologic response,[8],33%
CC(C)[C@H](CO)Nc1nc(NCc2ccc(-c3ccccn3)cc2)c2ncn(C(C)C)c2n1 [Compound of formula Ie],IC50,"[2]; Homo sapiens, Lymphocyte",510 nM
CC[C@H](CO)Nc1nc(NCc2ccc(-c3ccccn3)cc2)c2ncn(C(C)C)c2n1 [Compound of formula Ia],IC50,"[2]; Homo sapiens, Lymphocyte",200 nM
same,IC50,[4],180 nM
same,IC50,[5],3600 nM
same,IC50,[6],3600 nM
same,IC50,[7],400 nM
"CC(C)n1cnc2c(NCc3ccc(-c4ccccn4)cc3)nc(NC(CO)CO)nc21 [Compound of formula Id, 2-(1,3-Dihydroxyprop-2-ylamino)-6-[4-(2-pyridyl)phenylmethylamino]-9-isopropylpurine]",IC50,"[2]; Homo sapiens, Lymphocyte",250 nM
CCC(CO)Nc1nc(NCc2ccc(-c3ccccc3)cc2)c2ncn(C(C)C)c2n1 (stereo not drawn) [Compound of formula Ic],IC50,"[2]; Homo sapiens, Lymphocyte",1250 nM
same,solubility,[3],0.5 µg/mL
CC(C)[C@H](CO)Nc1nc(NCc2ccc(-c3ccccn3)cc2)c2ncn(C(C)C)c2n1 [Compound of formula If],IC50,[2],380 nM

# — patent US8431583B2, “Use of purine derivatives for the manufacture of a medicament” (Centre National de la Recherche Scientifique, priority 2007, dated 2013)
